One may read the solubility as the concentration that dissolves in the medium under given conditions. High values mean much dissolved substance, low ones little dissolved substance.

The test system of data set [1] is human-derived osteosarcoma cell line MG-63. The data set is described as follows: Cytotoxicity evaluation, relative cell metabolic activity (CellTiter-Blue), MG-63. In kind it is cell-based. The settings on record: Homo sapiens, 24 h, mean ± SD, read-out: Relative metabolic activity of MG-63 cells. As to the method: (§1) All target compounds were studied to determine their cytotoxic activity at various concentrations of each compound (10–50 µM) against human-derived osteosarcoma cell line MG-63 (ATCC, CRL-1427) and mouse-derived preosteoblast cell line MC3T3-E1 (ATCC, CRL-2593) (Table 4 and Figures S1-S4 in the Supporting Information). For the comparison, naturally occurring betulinic, oleanolic (1b) and ursolic (1c) acids as well as their 3-oxo analogs 2a-c and doxorubicin, were also subjected to the cytotoxicity tests.
(§2) Cytotoxicity of betulinic acid, ursolic acid and oleanolic acid derivatives was evaluated using human-derived osteosarcoma cell line MG63 (ATCC, CRL-1427) and mouse-derived preosteoblast cell line MC3T3-E1 (ATCC CRL-2593). Before conducting the experiments, both cell lines were continuously cultured according to the ATCC product sheet instructions. Briefly, both cell lines were expanded in α-MEM medium supplemented with 10% FBS and 1% pen-strep and maintained at 37 °C in a humidified atmosphere with 5% CO2.
(§3) Each cell line was plated at a concentration of 1 × 10^4 cells/well in 96-well plate. The plates were incubated for 24 h to allow cell attachment and growth. Bioactive substances were solubilized in methanol prior further dilution in cell culture media. Following the cell incubation period, the culture media was removed and the dilutions of active substance (10, 25 and 50 µM) in cell culture media were added. The culture medium only and its dilutions with methanol solution respective to the bioactive substance concentrations were used as the controls. […] Cells were treated with bioactive substance solutions for 24 h. After 24 h incubation, relative cell metabolic activity was assessed using CellTiter-Blue® (CTB) analysis (Promega, JAV). […] was measured at 590 nm using microplate reader (Infinite® 200 PRO, Tecan, USA). The relative cell metabolic activity was calculated for each bioactive substance concentration as well as for the controls. […] Statistically significant differences between sample groups are assessed using a one-way ANOVA test and then corrected using the Šídák multiple comparison test. Statistically significant differences were considered to be those with a P-values less than 0.05 (p < 0.05).
(§4) Cytotoxicity of betulinic acid, ursolic acid and oleanolic acid derivatives was evaluated using human-derived osteosarcoma cell line MG63 (ATCC, CRL-1427) and mouse-derived preosteoblast cell line MC3T3-E1 (ATCC CRL-2593). Before conducting the experiments, both cell lines were continuously cultured according to the ATCC product sheet instructions. Briefly, both cell lines were expanded in α-MEM medium supplemented with 10 % FBS and 1 % pen-strep and maintained at 37 °C in a humidified atmosphere with 5 % CO2.
(§5) […]
On the technique in general: Resazurin is reduced to fluorescent resorufin, in cell work by metabolically active cells.

In data set [2] the test system is mouse-derived preosteoblast cell line MC3T3-E1. The data set can be described thus: Cytotoxicity evaluation, relative cell metabolic activity (CellTiter-Blue), MC3T3-E1. Type of data set: cell-based. The note with it: Mus musculus, 24 h, mean ± SD, read-out: Relative metabolic activity of MC3T3-E1 cells. As to the method:
as §1, §2, §3, §4, §5

The nature of data set [3]: Water solubility determination by quantitative 1H-NMR in D2O. Type of data set: physicochemical. The note with it: D2O adjusted with NaOD, aqueous buffer, thermodynamic from solid; qNMR in D2O, pH 8.0-8.5 (NaOD), room temperature, potassium hydrogen phthalate external standard. From the text:
The obtained PCT-derived sodium phosphonates were subjected to water solubility tests (Table 3). For this purpose, we used a quantitative ^1H-NMR approach in D2O, using potassium hydrogen phthalate as an external standard (for experimental details see Supporting Information). The presence of the basic forms of phosphonates[80] was ensured by the careful addition of NaOD, maintaining pH 8.0–8.5 during the quantification, which is 2–3 units higher than the pKa of phosphonic acid disalt. […] This is by at least two to three orders of magnitude higher than the reported solubilities of the parent natural triterpenic acids. […] Indeed, phosphonic acids are more acidic and easier ionizable than carboxylic acids. This ionic character helps to increase the aqueous solubility as exemplified by here described compounds.
Water solubility determination
To suspension of PCT phosphonate sample (10 mg) in D2O (500 µL) 0.8% solution of NaOD in D2O was added dropwise until pH = 8-8.5 (<100 µL). Obtained suspension was sonified in ultrasonic bath for 10 min. Undissolved particles were separated by centrifugation. Clear D2O solution was carefully transferred to NMR tube equipped with external standard vial.
Formula (1) was used to determine the solubility of PCT sample in the D2O.
[…]
SolPCT - solubility of PCT sample in D2O at room temperature (mg/mL)
IPCT - integral value of PCT signal of choice
Ist - integral value of external standard signal of choice
NPCT - number of integrated protons of PCT
Nst - number of integrated protons of external standard
V - volume of used D2O (mL) mst - mass of external standard (mg)
Mbet - molecular weight of PCT (g•mol−1)
Mst - molecular weight of external standard - potassium hydrogen phthalate (204.22 […]
Wst - assay of the external standard (99.5 %)

Molecules are shown by their SMILES.

Take `C=C(C)[C@@H]1CC[C@]2(COCP(=O)([O-])[O-])CC[C@]3(C)[C@H](CC[C@@H]4[C@@]5(C)CC[C@H](OCP(=O)([O-])[O-])C(C)(C)[C@@H]5CC[C@]43C)[C@@H]12.[Na+].[Na+].[Na+].[Na+]` [compound 12, Sodium (lup-20(29)-en-(3 S)-3,28-diylbis(oxymethylene))bis(phosphonate)]: the viability at 10 µM in data set [1] (MG-63, 10 µM) worked out at 97 ± 8%; in data set [2] (MC3T3-E1, 10 µM), 90 ± 7%. The viability at 25 µM in data set [1] (MG-63, 25 µM) stood at 89 ± 5%; in data set [2] (MC3T3-E1, 25 µM) it was 93 ± 6%. Moreover, the viability at 50 µM in data set [1] (MG-63, 50 µM) amounted to 94 ± 4%; in data set [2] (MC3T3-E1, 50 µM), 92 ± 4%. The compound further registered a solubility at 10 min in data set [3] of 3000 µg/mL.

These data come from article PMC11564732, “Synthesis and preliminary cytotoxicity evaluation of water soluble pentacyclic triterpenoid phosphonates” (Scientific Reports, 2024).
